Assay [1] has as its target T1, G-CSF receptor (Mus musculus, UniProt P40223).
T1 construct: they express endogenous G-CSF receptors; endogenous in cells; host or cells: NFS60 (murine myeloid cell line) containing a G-CSF-responsive element / luciferase reporter
T1 sequence (P40223 26-837): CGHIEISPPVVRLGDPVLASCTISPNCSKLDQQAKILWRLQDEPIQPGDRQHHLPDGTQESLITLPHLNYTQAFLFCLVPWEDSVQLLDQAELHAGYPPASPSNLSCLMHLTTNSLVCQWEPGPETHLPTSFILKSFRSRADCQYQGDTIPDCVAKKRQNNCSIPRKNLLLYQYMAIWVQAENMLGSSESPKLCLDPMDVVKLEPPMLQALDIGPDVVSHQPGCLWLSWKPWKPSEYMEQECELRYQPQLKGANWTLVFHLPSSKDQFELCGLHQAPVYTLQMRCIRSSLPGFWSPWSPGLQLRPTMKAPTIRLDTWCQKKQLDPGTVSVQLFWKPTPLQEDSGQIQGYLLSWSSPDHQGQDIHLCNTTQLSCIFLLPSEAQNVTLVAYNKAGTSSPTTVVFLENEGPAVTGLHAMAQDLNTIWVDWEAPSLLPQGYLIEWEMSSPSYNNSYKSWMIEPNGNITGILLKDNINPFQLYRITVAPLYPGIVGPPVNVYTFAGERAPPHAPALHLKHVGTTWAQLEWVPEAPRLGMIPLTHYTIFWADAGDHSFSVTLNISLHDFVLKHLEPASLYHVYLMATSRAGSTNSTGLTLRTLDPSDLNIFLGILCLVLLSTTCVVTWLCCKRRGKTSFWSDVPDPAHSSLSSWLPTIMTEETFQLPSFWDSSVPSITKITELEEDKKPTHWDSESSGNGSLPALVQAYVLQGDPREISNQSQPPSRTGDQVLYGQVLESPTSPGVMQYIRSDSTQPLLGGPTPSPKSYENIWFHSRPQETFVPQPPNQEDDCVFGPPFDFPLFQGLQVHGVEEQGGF
In words: Luciferase assay in NFS60 cells in the presence of EDTA. It is filed as cell-based, murine. To be noted: for G-CSF agonist activity in the presence of EDTA (metal ion mediation): FIGS. 3 and 4. The procedure:
The media in this assay contained a small amount (1-5 uM) of zinc(II).
In order to determine the requisiteness of zinc chelation of small organic molecules to agonist activity at the G-CSF receptor, the above luciferase assay was performed in the presence of EDTA.

Assay [2] has as its target T1, G-CSF receptor. In words: Luciferase reporter gene assay in G-CSF-responsive NFS60 cells. To be noted: for activation in the luciferase assay: concentration range of 1 to 100 micromolar. It is filed as cell-based, murine. Here is the method: Activity of compound 1a is below the threshold of 150% over background. The study was performed as a Luciferase assay configured on the G-CSF-responsive NFS60 cell line as described in Tian et al., Science 281, 257-259 (1998). The experiments shown in FIGS. 2-8 used the same NFS60 cell line.
Compounds of the present invention were tested for potency as agonist of the G-CSF receptor in a Luciferase reporter gene assay such as described in Tian et al., Science 281, 257-259 (1998). The NFS60 cells (Holmes, et al., Proc. Natl. Acad. Sci. USA 82:6687-6691 (1985)) were selected because they express endogenous G-CSF receptors closely matching the pattern of STAT (signal transducers and activators of transcription) activation observed in primary murine and human bone marrow cells.
(A reporter such as luciferase makes a cellular process visible.)

Assay [3] relates to peripheral blood neutrophil and monocyte count. In words: In vivo evaluation of peripheral blood neutrophil and monocyte count. To be noted: mouse. The procedure: Compounds of this invention are also tested for activity in the following assays: CFU-G assay (an example of which is described in King […]., Badger A. M., Pelus L. M. Regulation of colony stimulating activity production from bone marrow stromal cells by the hematoregulatory peptide, HP-5. Exp. […] M.; King, […].; DeMarsh, […]., In vivo modulation of hematopoiesis by a novel hematoregulatory peptide Exp-Hematol. 1994 22(3):239-47).

Another assay deals with CFU-G. The assay is described as follows: CFU-G assay. It is filed as cell-based, murine. To be noted: concentration range of 1 to 100 micromolar. Here is the method: Compounds of this invention are also tested for activity in the following assays: CFU-G assay (an example of which is described in King A. G., Talmadge J., Badger A. M., Pelus L. M. Regulation of colony stimulating activity production from bone marrow stromal cells by the hematoregulatory peptide, HP-5. Exp. Hematol. 20:223-228, 1992) and in vivo evaluation of peripheral blood neutrophil and monocyte count in the mouse (an example of which is described in Pelus, L. M.; King, A. G.; Broxmeyer, H. E.; DeMarsh, P. L.; Petteway, S. R.; Bhatnagar, P. K., In vivo modulation of hematopoiesis by a novel hematoregulatory peptide Exp-Hematol. 1994 22(3):239-47). In order to confirm the requirement for zinc(II) chelation, the above CFU-G assay was also conducted in the presence of EDTA.

The target in another assay is G-CSF/Fc fusion protein. The assay is described as follows: Isothermal titration microcalorimetry. It is filed as binding. To be noted: in the presence of zinc. Here is the method:
Zinc-mediated affinity of compounds from this invention for the G-CSF receptor was measured by isothermal titration microcalorimetry experiments. Titration microcalorimetry detects binding as heat originating from the intrinsic bond forming enthalpy change. […] In a separate experiment, the compounds were then assayed in the presence of zinc and a G-CSF/Fc fusion protein, which contained the extracellular domain of the G-CSF receptor presented in a dimeric form due to the Fc component.
In general terms: In ITC the heat of successive injections is recorded.

In the case of zinc (II) [reference compound], the “effect of metal chlorides on the EDTA depleted activity of Compound 1a” value on G-CSF receptor [1] (50 micromolar EDTA, metal at 0.5-10 micromolar, FIGS. 7 and 8) is on record as “can overcome the inhibition”.
In the case of `[Zn+2].c1ccc(C23NC(=Nc4nc5ccccc5[nH]4)NC2(c2ccccn2)NC(=Nc2nc4ccccc4[nH]2)N3)nc1.c1ccc(C23NC(=Nc4nc5ccccc5[nH]4)NC2(c2ccccn2)NC(=Nc2nc4ccccc4[nH]2)N3)nc1` (stereo not drawn) [Compound 1, Bis{2,5-bis[2-benzimidazolylimino]-3a,6a-bis(2-pyridyl)-1,2,3,3a,4,5,6,6a-octahydroimidazo[4,5-d]imidazole-N,N'}-zinc(II)], on G-CSF receptor [2], the “activation in the luciferase assay” value was “above 150 % of control”.
Still for that read-out and setting: with `c1ccc(C23NC(=Nc4nc5ccccc5[nH]4)NC2(c2ccccc2)NC(=Nc2nc4ccccc4[nH]2)N3)cc1` (stereo not drawn) [Compound 2a, 2,5-Bis[2-benzimidazolylimino]-3a,6a-diphenyl-1,2,3,3a,4,5,6,6a-octahydroimidazo[4,5-d]imidazole] the entry was “above 150 % of control”.
`Cc1ccc2nc(N=C3NC4(c5ccccn5)NC(=Nc5nc6ccccc6[nH]5)NC4(c4ccccn4)N3)[nH]c2c1.O=C(O)C(F)(F)F.O=C(O)C(F)(F)F` (stereo not drawn) [Compound 3a, 5-(2-benzimidazolylimino)-2-[(5-methyl-2-benzimidazolyl)imino]-3a,6a-bis(2-pyridyl)-1,2,3,3a,4,5,6,6a-octahydroimidazo[4,5-d]imidazole bis(trifluoroacetate) salt]: the “peripheral blood neutrophil and monocyte count” value in assay [3] is “elevation of peripheral blood neutrophil and monocyte count”. Also, in the assay on CFU-G, the “activation in the murine CFU-G assay” value was “above 150 % of control”. On G-CSF/Fc fusion protein, the “affinity for G-CSF/Fc fusion protein” value was “high, submicromolar affinity”. The “activation in the luciferase assay” value at G-CSF receptor [2] was “above 150 % of control”.
Regarding `c1ccc(C23NC(=Nc4nc5ccccc5[nH]4)NC2(c2ccccn2)NC(=Nc2nc4ccccc4[nH]2)N3)nc1` (stereo not drawn) [Compound 1a, 2,5-Bis[2-benzimidazolylimino]-3a,6a-bis(2-pyridyl)-1,2,3,3a,4,5,6,6a-octahydroimidazo[4,5-d]imidazole], in assay [3], the “peripheral blood neutrophil and monocyte count” value was “elevation of peripheral blood neutrophil and monocyte count”. Also, the “activation in the murine CFU-G assay” value in the assay with CFU-G is given as “above 150 % of control”. The “affinity for G-CSF/Fc fusion protein” value at G-CSF/Fc fusion protein is on record as “high, submicromolar affinity”. The “luciferase activity (G-CSF agonist activity)” value at G-CSF receptor [2] (NFS60 cells, absence of zinc, FIG. 1) is below 150 % over background. Also, on G-CSF receptor [2] (NFS60 cells, presence of 1 uM zinc (II), FIG. 2), the luciferase activity entry is “about 350 % over control”. Besides, the “activation in the luciferase assay” value at G-CSF receptor [2] was “above 150 % of control”. The G-CSF agonist efficacy on G-CSF receptor [2] (presence of 1 uM zinc(II), at 1 uM, FIG. 2) came to 350 % over background. Moreover, the “effect of EDTA on luciferase activity” value at G-CSF receptor [1] (EDTA 1.2 millimolar, media contained 1-5 uM zinc(II), FIG. 3) is reported as “antagonized”. Moreover, at G-CSF receptor [1], the “G-CSF agonist activity in the presence of EDTA (metal ion mediation)” value is “abrogated”.

B1: recombinant G-CSF: natural ligand for the G-CSF receptor (G-CSF or recombinant G-CSF) (protein, UniProt P09919 31-207, looked up)
Granulocyte …: TPLGPASSLPQSFLLKCLEQVRKIQGDGAALQEKLVSECATYKLCHPEELVLLGHSLGIPWAPLSSCPSQALQLAGCLSQLHSGLFLYQGLLQALEGISPELGPTLDTLQLDVADFATTIWQQMEELGMAPALQPTQGAMPAFASAFQRRAGGVLVASHLQSFLEVSYRVLRHLAQP
Regarding B1, in the assay with G-CSF receptor [1] (EDTA 1.2 and 5 millimolar, FIG. 4), the “effect of EDTA on luciferase activity” value is listed as “little effect”. The “G-CSF agonist activity in the presence of EDTA (metal ion mediation)” value with G-CSF receptor [1] is “not mediated by metal ions”.

The record behind these values is patent US6211200A, “Metal complexes” (SmithKline Beecham Corporation, priority 1998, dated 2001).
